Patent US20250101017A1, “SALT CRYSTAL FORM AND FREE BASE CRYSTAL FORM OF KINASE INHIBITOR” (CYTOSINLAB THERAPEUTICS CO., LTD., priority 2022, published 2025)
≈ marks a conversion by molar mass, not a printed value.

Experiments:
Type in all cases: physicochemical
[1] = Solid stability of crystal forms (80° C., light exposure, 25° C./60% RH, 40° C./75% RH); purity by liquid chromatography and XRPD of the solids; conditions: for Crystal form: XRPD
Description: A certain amount of API and malate crystal form VII-A were weighed and added into a liquid phase vial, and a total of 9 parallels were prepared. The 9 parallels were placed separately in 80° C. (open); 25° C., 60% RH (open); 40° C., 75% RH (open); and light stability box closed). The stabilities under conditions of: 80° C. for one day, light exposure for 10 days, as well as 25° C., 60% RH and 40° C., 75% RH for one and two weeks were tested, and the XRPD of the solids were measured.
A certain amount of crystal form B was weighed and added into a liquid phase vial, and a total of 9 parallels were prepared. 9 parallels were placed separately in 80° C.; 25° C., 60% RH, 40° C., 75% RH; and light stability boxe.

[2] = Solubility at 37° C. in buffer solutions with different pH (about 10 mg in 1 ml, 2 h and 24 h); filtrate concentration and pH, XRPD of remaining solid; conditions: for solubility at 2 h / solubility at 24 h: 37 °C, thermodynamic from solid; for solubility at 2 h: read-out: Solubility at 37° C. (mg/ml) 2 h; for solubility at 24 h: read-out: Solubility at 37° C. (mg/ml) 24 h; for pH (24 h): filtrate
Description: Approximately 10 mg of malate crystal form VII-A and free base Form A were weighed separately, and 1 ml of buffer solutions with different pH were added to make the solution supersaturated, and the mixtures were stirred at 37° C. for 2 h and 24 hours. The samples were filtered, and the filtrates were measured to determine the concentration and pH value, and the remaining solid was subjected to XRPD determination. The specific results were as follows: […]

[3] = Solubility of crystal form Form T in different solutions at 37° C. (about 60 mg in 2 mL, 2 h and 24 h; HPLC, pH, XRPD)
Description: Approximately 60 mg of the sample was weighed and added into a 4 mL bottle, and 2 mL of different solvents (water, pH 1.0, 3.0, 5.0, 7.0, 9.0, FaSSIF, FeSSIF, and SGF) were added and the mixtures were stirred at 37° C. for 24 h after adding magnetic stirring bar. Samples were taken at 2 and 24 h respectively. After filtration, the sample concentration in the filtrate was tested by HPLC, and the pH value of the filtrate and the XRPD of the remaining solid were also measured. The measured solubility of the sample in different solutions was as follows.

## CCc1nc2c(N)ncc(-c3ccc(N4CCC(N5CCN(CC)CC5)CC4)c(OC)c3)c2nc1NC1CCOCC1 [Malate crystal form VII-A]
[1]; 25° C., 60% RH (open), 1 week
  Degradation (%): 0.03%
  Purity (%): 95.81%
  Crystal form: Unchanged
[1]; 25° C., 60% RH (open), 2 weeks
  Degradation (%): 0.32%
  Purity (%): 95.52%
  Crystal form: Unchanged
[1]; 40° C., 75% RH (open), 1 week
  Degradation (%): 0.13%
  Purity (%): 95.71%
  Crystal form: Unchanged
[1]; 40° C., 75% RH (open), 2 weeks
  Degradation (%): 1.06%
  Purity (%): 94.78%
  Crystal form: Unchanged
[1]; 80° C. (open), 1 day
  Degradation (%): 0.62%
  Purity (%): 95.22%
  Crystal form: Unchanged
[1]; Light contral, 10 days
  Degradation (%): 0.05%
  Purity (%): 95.79%
  Crystal form: Unchanged
[1]; Light exposure, 10 days
  Degradation (%): 6.67%
  Purity (%): 89.17%
  Crystal form: Unchanged
[1]; initial
  Purity (%): 95.84%
[1]; light exposure and 40° C., 75% RH
  Degradation: varying degrees of degradation
[2]; FeSSIF, fessif, medium FeSSIF, 2 h
  solubility at 2 h: > 10 mg/mL
[2]; FeSSIF, fessif, medium FeSSIF, 24 h
  solubility at 24 h: > 10 mg/mL
[2]; SGF, simulated gastric fluid, medium SGF, 2 h
  solubility at 2 h: > 10 mg/mL
[2]; SGF, simulated gastric fluid, medium SGF, 24 h
  solubility at 24 h: > 10 mg/mL
[2]; medium FaSSIF
  pH (24 h): 6.524
[2]; medium FeSSIF
  pH (24 h): 5.796
[2]; medium H2O
  pH (24 h): 7.026
[2]; medium SGF
  pH (24 h): 1.644
[2]; medium pH 1.2
  pH (24 h): 1.605
[2]; medium pH 3.0
  pH (24 h): 4.601
[2]; medium pH 4.5
  pH (24 h): 5.468
[2]; medium pH 6.8
  pH (24 h): 6.775
[2]; medium pH 7.4
  pH (24 h): 7.389
[2]; medium FaSSIF, 2 h
  Solubility at 37° C. (mg/ml) 2 h: >10 mg/mL
[2]; medium FaSSIF, 24 h
  Solubility at 37° C. (mg/ml) 24 h: >10 mg/mL
[2]; medium H2O, 2 h
  Solubility at 37° C. (mg/ml) 2 h: >10 mg/mL
[2]; medium H2O, 24 h
  Solubility at 37° C. (mg/ml) 24 h: >10 mg/mL
[2]; medium pH 1.2, 2 h
  Solubility at 37° C. (mg/ml) 2 h: >10 mg/mL
[2]; medium pH 1.2, 24 h
  Solubility at 37° C. (mg/ml) 24 h: >10 mg/mL
[2]; medium pH 3.0, 2 h
  Solubility at 37° C. (mg/ml) 2 h: >10 mg/mL
[2]; medium pH 3.0, 24 h
  Solubility at 37° C. (mg/ml) 24 h: >10 mg/mL
[2]; medium pH 4.5, 2 h
  Solubility at 37° C. (mg/ml) 2 h: >10 mg/mL
[2]; medium pH 4.5, 24 h
  Solubility at 37° C. (mg/ml) 24 h: >10 mg/mL
[2]; medium pH 6.8, 2 h
  Solubility at 37° C. (mg/ml) 2 h: >10 mg/mL
[2]; medium pH 6.8, 24 h
  Solubility at 37° C. (mg/ml) 24 h: >10 mg/mL
[2]; medium pH 7.4, 2 h
  Solubility at 37° C. (mg/ml) 2 h: >10 mg/mL
[2]; medium pH 7.4, 24 h
  Solubility at 37° C. (mg/ml) 24 h: >10 mg/mL

## CCc1nc2c(N)ncc(-c3ccc(N4CCC(N5CCN(CC)CC5)CC4)c(OC)c3)c2nc1NC1CCOCC1 [Form T, 3-ethyl-8-(4-(4-(4-ethylpiperazin-1-yl)piperidin-1-yl)-3-methoxyphenyl)-N2-(tetrahydro-2H-pyran-4-yl) pyridino [3,4-b]pyrazine-2,5-diamine]
[3]; FaSSIF, filtrate, 2 h
  pH: 6.72
[3]; FaSSIF, filtrate, 24 h
  pH: 6.73
[3]; FeSSIF, filtrate, 2 h
  pH: 6.50
[3]; FeSSIF, filtrate, 24 h
  pH: 6.50
[3]; SGF, filtrate, 2 h
  pH: 6.20
[3]; SGF, filtrate, 24 h
  pH: 6.22
[3]; other solvents (water, pH 7.0, pH 9.0, FaSSIF)
  pH of the solution compared to the initial pH value: did not change significantly
[3]; other solvents (water, pH 7.0, pH 9.0, FaSSIF), XRPD
  crystal form of remaining solid: did not change
[3]; pH 1.0, filtrate, 2 h
  pH: 5.13
[3]; pH 1.0, filtrate, 24 h
  pH: 5.17
[3]; pH 1.0, pH 3.0, pH 5.0, FeSSIF, and SGF
  pH of the filtrate compared to the initial pH value of the buffer solution: significant changes
[3]; pH 1.0 solution, simulated gastric fluid, thermodynamic from solid, pH 1.0, 37° C., 2 h
  solubility at 2 h: 28000 µg/mL (≈ 48.7 mM)
[3]; pH 1.0 solution, simulated gastric fluid, thermodynamic from solid, pH 1.0, 37° C., 24 h
  solubility at 24 h: 29300 µg/mL (≈ 51 mM)
[3]; pH 3.0, filtrate, 2 h
  pH: 6.51
[3]; pH 3.0, filtrate, 24 h
  pH: 6.52
[3]; pH 3.0 solution, aqueous buffer, thermodynamic from solid, pH 3.0, 37° C., 2 h
  solubility at 2 h: 23100 µg/mL (≈ 40.2 mM)
[3]; pH 3.0 solution, aqueous buffer, thermodynamic from solid, pH 3.0, 37° C., 24 h
  solubility at 24 h: 23200 µg/mL (≈ 40.4 mM)
[3]; pH 5.0, filtrate, 2 h
  pH: 6.66
[3]; pH 5.0, filtrate, 24 h
  pH: 6.67
[3]; pH 5.0 solution, aqueous buffer, thermodynamic from solid, 37° C., pH 5.0
  solubility: ~8000 µg/mL (≈ 13.9 mM)
[3]; pH 5.0 solution, aqueous buffer, thermodynamic from solid, pH 5.0, 37° C., 2 h
  solubility at 2 h: 8370 µg/mL (≈ 14.6 mM)
[3]; pH 5.0 solution, aqueous buffer, thermodynamic from solid, pH 5.0, 37° C., 24 h
  solubility at 24 h: 8170 µg/mL (≈ 14.2 mM)
[3]; pH 7.0, filtrate, 2 h
  pH: 6.99
[3]; pH 7.0, filtrate, 24 h
  pH: 6.98
[3]; pH 7.0 solution, aqueous buffer, thermodynamic from solid, pH 7.0, 37° C., 2 h
  solubility at 2 h: 60 µg/mL (≈ 0.104 mM)
[3]; pH 7.0 solution, aqueous buffer, thermodynamic from solid, pH 7.0, 37° C., 24 h
  solubility at 24 h: 60 µg/mL (≈ 0.104 mM)
[3]; pH 9.0, filtrate, 2 h
  pH: 8.77
[3]; pH 9.0, filtrate, 24 h
  pH: 8.79
[3]; pH 9.0 solution, aqueous buffer, thermodynamic from solid, pH 9.0, 37° C., 2 h
  solubility at 2 h: 2 µg/mL (≈ 0.00348 mM)
[3]; pH 9.0 solution, aqueous buffer, thermodynamic from solid, pH 9.0, 37° C., 24 h
  solubility at 24 h: 2 µg/mL (≈ 0.00348 mM)
[3]; simulated gastric fluid, thermodynamic from solid, SGF, 37° C., 2 h
  solubility at 2 h: 27600 µg/mL (≈ 48.1 mM)
[3]; simulated gastric fluid, thermodynamic from solid, SGF, 37° C., 24 h
  solubility at 24 h: 27300 µg/mL (≈ 47.5 mM)
[3]; solutions: pH 1.0, thermodynamic from solid, 37° C., pH 1.0, pH 3.0, FeSSIF, and SGF
  solubility: > 18000 µg/mL
[3]; thermodynamic from solid, 37° C., water, pH 7.0, pH 9.0, and FaSSIF
  solubility: < 700 µg/mL
[3]; thermodynamic from solid, FaSSIF, 37° C., 2 h
  solubility at 2 h: 670 µg/mL (≈ 1.17 mM)
[3]; thermodynamic from solid, FaSSIF, 37° C., 24 h
  solubility at 24 h: 700 µg/mL (≈ 1.22 mM)
[3]; thermodynamic from solid, FeSSIF, 37° C., 2 h
  solubility at 2 h: 18900 µg/mL (≈ 32.9 mM)
[3]; thermodynamic from solid, FeSSIF, 37° C., 24 h
  solubility at 24 h: 18700 µg/mL (≈ 32.5 mM)
[3]; thermodynamic from solid, water, 37° C., 2 h
  solubility at 2 h: 2 µg/mL (≈ 0.00348 mM)
[3]; thermodynamic from solid, water, 37° C., 24 h
  solubility at 24 h: 3 µg/mL (≈ 0.00522 mM)
[3]; water, filtrate, 2 h
  pH: 7.20
[3]; water, filtrate, 24 h
  pH: 7.12
